Earlier results in patent US11638718B2, “Treatment of alphavirus-induced inflammation” (priority 2016, dated 2023).

Test system: alphavirus
Settings: earlier studies by the group (refs 30, 55-57); cited from earlier work

Compound: CN(Cc1cnc2nc(N)nc(N)c2n1)c1ccc(C(=O)N[C@@H](CCC(=O)O)C(=O)O)cc1 [methotrexate]
- effect on alphavirus disease: increased the onset of RRV-induced musculoskeletal disease
